Data taken from patent US20230176066A1, “PLASMON-ENHANCED FLUORO-DOT ASSAYS” (Washington University, priority 2021, published 2023).

Legend:
[1] = Fluorescence intensity vs. molar concentration of labels; type: physicochemical; details: linear regression
Procedure: Streptavidin-conjugated Cy3-plasmonic-fluor (PF550™ ultrabright fluor) and streptavidin-conjugated Cy5-plasmonic-fluor (PF650™ ultrabright fluor) were purchased from Auragent Biosceince LLC (St. Louis, USA). The extinction was measured using a Shimadzu UV-1800 spectrophotometer. SEM images were obtained using a FEI Nova 2300 field-emission scanning electron microscope at an acceleration voltage of 10 kV. TEM images were obtained using a JEOL JEM-2100F field emission instrument. A drop of aqueous solution was dried on a carbon-coated grid, which had been made hydrophilic by glow discharge. Molar concentrations of plasmonic-fluors was calculated as described previously. Fluorescence intensity was recorded using Azure Biomolecular Imager: Sapphire RGBNIR (Azure Biosystems, Inc. Dublin, USA) and the images were analyzed using Licor Image Studio Lite.
For analyzing the statistical difference between more than two groups, one-way analysis of variance (ANOVA) with a post-hoc Tukey's honest significance test was used. Statistical significance of the data was calculated at 95% (p<0.05) confidence intervals. All values are expressed as mean±standard deviation. GraphPad Prism 6 was used for all statistical analysis. Linear regression was used to calculate the equation and to derive the slope of fluorescence intensity vs. molar concentration graph. […]

[2] = test system: JAWS II dendritic cells; test: Fluoro-dot assay on JAWS II DC: TNFα secretion after LPS stimulation; type: cell-based, Mouse; details: for TNFα secretion: 90 minutes incubation
Procedure: Mouse TNFα DuoSet ELISA kits (R&D systems, catalog number DY410, lot number P189768) was used to perform the assays. Glass-bottom 96-well black plate (P96-1.5H-N, Cellvis, Mountain View, USA) was first coated with capture antibodies (0.8 μg/ml in PBS), 100 μl/well and incubated overnight at 4° C. The plate was washed three times with 1×PBS and then blocked with 200 μl of reagent diluent (1×PBS in 1% BSA, 0.2 μm filtered). After blocking, the plates were washed three times with PBS. Mouse JAWS II dendritic cells (immature, monocytes ATCC® CRL11904™) were cultured in alpha minimum essential medium with ribonucleosides, deoxyribonucleosides, 4 mM L-glutamine, 1 mM sodium pyruvate and 5 ng/ml murine GM-CSF, 10% heat-inactivated fetal bovine serum, 50 IU/ml of penicillin, 50 μg/ml of streptomycin. JAWS II DCs were seeded on the capture coated plates, at the seeding density of 5,000 cells/well in 100 μl of medium followed by incubation at 37° C. in 5% CO2 for 30 minutes. All the non-adherent cells were removed by taking out the medium and replacing it with 100 μl of fresh medium containing varying amounts of LPS ranging from (0 to 2000 ng/ml). The cells were incubated at 37° C. in 5% CO2 for varying durations from 20 minutes to 90 minutes.
(§1) After completion of the incubation duration, the medium was decanted, and the cells were fixed using 100 μl/well of 4% neutral buffered formalin (NBF) for 20 minutes at room temperature. The plates were then washed three times with PBS and incubated with biotinylated detection antibodies, 75 ng/ml in reagent diluent for 2 hours at room temperature. The plates were washed three times using PBS and then were incubated with 100 μl/well of streptavidin Cy5-plasmonic-fluors (extinction 0.5) for 30 minutes at room temperature in dark. For comparison, 100 μl of 1 μg/ml of streptavidin-Cy5 (Thermo Fisher Scientific, catalog number SA1011) as conventional fluorophore and 1 nM of streptavidin QD655™ (Thermo Fisher Scientific, catalog number Q10123MP) was added to each well for 30 minutes at room temperature in dark. The plates were washed with PBS three times, and the nuclei of the cells were stained with 300 nM DAPI solution (Millipore Sigma, St. Louis, Mo., USA) for 5 minutes at room temperature in dark. Finally, the plates were washed three times in PBS and imaged using Nikon TsR2 epifluorescence microscope. For ELISA, culture supernatants of JAWS II DC after treatment described above were collected and TNFα concentration was measured using mouse TNFα DuoSet ELISA kits (R&D systems, catalog number DY410, lot number P189768) as per manufacturer's instructions.

[3] = test system: JAWS II dendritic cells; test: Multiplexed Fluoro-dot assay: TNFα and IL-6 secretion after LPS stimulation; type: cell-based, Mouse; details: 200 ng/ml LPS
Procedure: Mouse TNFα DuoSet ELISA kits (R&D systems, catalog number DY410, lot number P189768) and mouse IL-6 DuoSet ELISA kit (R&D systems, catalog number DY406, lot number P234212) were used to perform the assays. Glass-bottom 96-well black plate (P96-1.5H-N, Cellvis, Mountain View, USA) was first coated with both TNFα capture antibody (0.8 μg/ml in PBS) and IL-6 capture antibody (2 μg/ml in PBS), 100 μ/well, and incubated overnight at 4° C. The plate was washed three times with 1×PBS and then blocked with 200 μl of reagent diluent (1×PBS in 1% BSA, 0.2 μm filtered). After blocking the plates were washed three times with PBS. JAWS II dendritic cells (ATCC® CRL-11904™) were cultured in alpha minimum essential medium with ribonucleosides, deoxyribonucleosides, 4 mM L-glutamine, 1 mM sodium pyruvate and 5 ng/ml murine GM-CSF, 10% heat-inactivated fetal bovine serum, 50 IU/ml of penicillin, 50 μg/ml of streptomycin. JAWS II DCs were seeded on the capture coated plates, at the seeding density of 5,000 cells/well in 100 μl of medium followed by incubation at 37° C. in 5% CO2 for 30 minutes. All the non-adherent cells were removed by taking out the medium and replacing it with 100 μl of fresh medium containing 200 ng/ml of LPS. The cells were incubated at 37° C. in 5% CO2 for 30 minutes, 1 hour, 2 hours, and 3 hours. The wells with medium and without LPS were incubated for 3 hours. […]

[4] = test system: JAWS II dendritic cells; test: ELISA of culture supernatant of JAWS II DC after LPS stimulation; type: cell-based, Mouse; details: low dose and short duration of stimulation
Procedure: as §1

Substance	slope of fluorescence intensity vs. molar concentration, steeper than that of the conventional fluorophore (Cy5 or Cy3) [1]	TNFα secretion ([2]; 2 ng/ml LPS)	TNFα secretion ([2]; 20 ng/ml LPS)	duration of treatment at which difference between treated and untreated cells was statistically significant ([2]; 200 ng/ml LPS)	incubation time after which TNFα secretion was detectable ([2]; 200 ng/ml LPS)	TNFα secretion with increasing LPS concentration ([2]; 20, 200, 2000 ng/ml LPS, 90 minutes)	LPS dose at which difference between treated and untreated cells was statistically significant ([2]; 90 min incubation, number of clusters and particles/cluster)	secretion of TNFα and IL-6 with increasing duration of LPS incubation ([3]; 30 minutes to 3 hours)	relative secretion of IL-6 and TNFα at longer time durations ([3]; 2 hours and 3 hours)	amount of TNFα secretion by ELISA [4]
Cy5-plasmonic-fluor: Streptavidin-conjugated Cy5 plasmon-enhanced fluorescent nanolabel purchased from Auragent Bioscience	~16,000 fold									
lipopolysaccharide [LPS]		no significant secretion of TNFα	Substantial secretion	more than 40 minutes	40 min	increase in TNFα secretion	higher than 20 ng/ml	increase in the overall secretion of both cytokines	more predominant IL-6 secretion as compared to TNFα	below its detection limit
